Reference: patent US6358701B1, “DNA molecules encoding Ctenocephalides felis glutamate gated chloride channels” (Merck & Co., Inc., priority 1997, dated 2002)
Read-outs that look alike come from different tables or passages of the source.

Columns and labels:
[1] = system: CfGluCl-1 (C. felis GluCl channel); experiment: Two microelectrode voltage clamp of Xenopus oocytes expressing CfGluCl-1; assay type: cell-based, Ctenocephalides felis; conditions: for ability to activate CfGluCl-1: agonists for other types of ligand-gated chloride channels
Method: The full-length cDNA encoding CfGluCl-1 in plasmid vector pBluescript (Stratagene, LaJolla, Calif.) is linearized and capped cRNA transcripts are synthesized using appropriate oligonucleotide primers and the mMESSAGE mMACHINE in vitro RNA transcription kit (Ambion). Xenopus laevis oocytes were prepared and injected using standard methods as described (Arena et al., 1991, Mol. Pharmacol. 40: 368-374; Arena et al, 1992, Mol. Brain Res. 15: 339-348). Adult female Xenopus laevis were anesthetized with 0.17% tricaine methanesulfonate and the ovaries were surgically removed and placed in a dish consisting of (mM): NaCl 82.5, KCl 2, MgCl2 1, CaCl2 1.8, HEPES 5 adjusted to pH 7.5 with NaOH (OR-2). Ovarian lobes were broken open, rinsed several times, and gently shaken in OR-2 containing 0.2% collagenase (Sigma, Type IA) for 2-5 hours. When approximately 50% of the follicular layers were removed, Stage V and VI oocytes were selected and placed in media consisting of (mM): NaCl 86, KCl 2, MgCl2 1, CaCl2 1.8, HEPES 5, Na pyruvate 2.5, theophylline 0.5, gentamicin 0.1 adjusted to pH 7.5 with NaOH (ND-96) for […] before injection. For most experiments, oocytes were injected with 10 ng of cRNA in 50 nl of RNase free water. Control oocytes were injected with 50 nl of water. Oocytes were incubated for 1-5 days in ND-96 supplemented with […] gentamycin, 2.5 mM Na pyruvate and 0.5 mM theophylline before recording. Incubations and collagenase digestion were carried out at […].
Voltage-clamp studies were conducted with the two microelectrode voltage clamp technique using a Dagan CA1 amplifier (Dagan Instruments, Minneapolis, Minn.). The current passing microelectrodes were filled with 0.7M KCl plus 1.7M K3-citrate and the voltage recording microelectrodes were filled with 1.0M KCl. The extracellular solution for most experiments was saline consisting of (mM): NaCl 96, BaCl2 3.5, MgCl2 0.5, CaCl2 0.1, HEPES 5, adjusted to pH 7.5 with NaOH. The extracellular chloride concentration was reduced in some experiments by equimolar replacement of NaCl with the sodium salt of the indicated anion. Experiments were conducted at 21-24° C. Data were acquired using the program Pulse and most analysis was performed with the companion program Pulsefit (Instrutech Instruments, Great Neck, N.Y.) or with Igor Pro (Wavemetrics, Lake Oswego, Oreg.). Data were filtered (fc, −3db) at 1 kHz, unless otherwise indicated.
FIG. 5A and FIG. 5B show the activation of CfGluCl-1 by glutamate. […] The duration of exposure to glutamate is indicated by the solid bar at top. FIG. 5B shoes the concentration-response curve for glutamate. Peak outward current is plotted vs. glutamate concentration. The solid curve is the best fit to the equation I/Imax={1+(EC50/[glutamate])^n}^−1. […] Agonists for other types of ligand-gated chloride channels were also tested for the ability to activate
Each curve represents the difference between the current measured with and without 10 μM glutamate. The voltage was ramped from −120 to +60 mV at 1 volt/second. Chloride concentration was reduced from 104 mM to 8.2 mM by equimolar substitution of NaCl by Na-methanesulfonate or Na-gluconate. Each current-voltage relationship was fit to a seventh order polynomial using non-linear least squares analysis and the reversal potential was taken as the x-intercept of this polynomial.
A single [IVM-PO4] was tested on each oocyte. The ordinate is the maximal current induced by IVM-PO4 normalized by the peak current induced by 100 μM glutamate, a maximally effective concentration. The error bars indicate ±S.E.M. The holding potential was 0 mV for both sets of measurements. The filled circles represent data for CfGluCl-1.
(1) I=Iivm,max/{1+(EC50/[IVM-PO4])^n}

DmGluCl1 = DmGluCl1 (Drosophila melanogaster, UniProt Q94900); conditions: holding potential −80 mV; cited from earlier work
Sequence of DmGluCl1 (Q94900 23-456 S345N): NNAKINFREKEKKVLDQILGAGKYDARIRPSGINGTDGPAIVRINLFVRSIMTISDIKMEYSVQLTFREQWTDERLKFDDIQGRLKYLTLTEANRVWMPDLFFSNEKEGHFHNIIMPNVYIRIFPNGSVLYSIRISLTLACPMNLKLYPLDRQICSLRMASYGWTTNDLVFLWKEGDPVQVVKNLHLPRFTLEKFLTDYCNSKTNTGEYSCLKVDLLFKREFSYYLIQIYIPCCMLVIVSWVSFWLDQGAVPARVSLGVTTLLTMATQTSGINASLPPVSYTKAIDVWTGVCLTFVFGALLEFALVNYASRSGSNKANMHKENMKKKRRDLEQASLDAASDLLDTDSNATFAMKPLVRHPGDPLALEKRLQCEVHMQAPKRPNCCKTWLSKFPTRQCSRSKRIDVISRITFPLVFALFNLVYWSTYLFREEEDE

CC(=O)OCC[N+](C)(C)C [acetylcholine]
ability to activate CfGluCl-1 [1]: inactive

NCc1cc(=O)[nH]o1 [muscimol]
ability to activate CfGluCl-1 [1]: inactive

N[C@@H](CCC(=O)O)C(=O)O [glutamate]
EC50 ([1]; experiment of FIG. 5B, fit to I/Imax={1+(EC50/[glutamate])^n}^−1, read-out: EC50 for activation of CfGluCl-1 (peak outward current vs. concentration)): 9300 nM

NCCCC(=O)O [GABA]
ability to activate CfGluCl-1 [1]: inactive

ivermectin phosphate [IVM-PO4]
EC50 (DmGluCl1): 41 nM
Iivm,max on DmGluCl1 (DmGluCl1): 0.35
n (exponent of equation (1)) on DmGluCl1 (DmGluCl1): 1.2
increase in potency ([1]; 0 mV measurements vs. earlier −80 mV data): 10 fold
agonist activity at the flea GluCl channel encoded by CfGluCl-1 ([1]; FIGS. 7A and B): agonist
Iivm,max (maximal current normalized by the peak current induced by 100 μM glutamate) ([1]; holding potential 0 mV): 0.718
EC50 ([1]; holding potential 0 mV, fit to equation (1), read-out: EC50 for activation of CfGluCl-1): 2.93 nM

NCCc1c[nH]cn1 [histamine]
ability to activate CfGluCl-1 [1]: inactive

NCC(=O)O [glycine]
ability to activate CfGluCl-1 [1]: inactive
